# Laboratory results reported in US8653304B2, “2,3-dihydro-1H-indene-2-yl urea derivative and pharmaceutical application of same” (Toray Industries, Inc., priority 2009, dated 2014).
# Columns and labels:
# [1] = system: colonic disorders in DSS-induced chronic colitis model; assay: Colonic disorders in DSS-induced chronic colitis model; type: in vivo; conditions: BALB/c mouse, oral 10 mg/kg once Day 27, twice a day Day 28-31; scores Day 28-32
# From the text: (§1) The action of Compound (I) on colonic disorders in inflammatory bowel disease models was studied. As the inflammatory bowel disease models, models partially modified from a TNBS-induced colitis model and a DSS-induced chronic colitis model described in documents (Gastroenterology, 1989, Vol. 96, pp. 29-36 and Am. J. Physiol. Gastrointest. Liver Physiol., 2004, Vol. 287, pp. G115-124) were used.
# To each BALB/cCrSlc mouse (female, 9-week old, Japan SLC, Inc.), DSS (Molecular Weight: 36-50 kDa; MP Biomedicals) dissolved in sterile ultrapure water was administered via free drinking for 5 days from the day of the start of the administration via drinking water (this day was considered as Day 0 after the start of the administration via drinking water), and then switched to administration of sterile ultrapure water via free drinking for 5 days. This cycle was repeated again, and DSS was further administered via free drinking for another 7 days to produce the colitis model. As an index of colitis symptoms, stool consistency scores were used. The stool consistency scores were based on the following criteria: normal stool was defined as score 0; loose stool was defined as score 2; and diarrhea was defined as score 4. […]
# TNFα production [2] = assay: Cytokine production suppressing activity using human whole blood (LPS stimulation); type: cell-based; conditions: LPS 200 ng/mL, 37° C., 5 hours
# Method: Using human whole blood, the inhibitory action of Compound (I) on the TNFα production by LPS stimulation was studied by a method partially modified from the method described in Journal of Medicinal Chemistry (2003, Vol. 46, pp. 4676-4686).
# A solution of each test compound in 100% DMSO and human blood were mixed in a 96-well flat-bottom plate. Thereafter, LPS (Final Concentration: 200 ng/mL) was added, and the resulting mixture was allowed to react at 37° C. for 5 hours (the final concentration of DMSO was 0.2%). After the reaction, the resultant was centrifuged for 20 minutes at room temperature, and the supernatant was collected. For the measurement of the TNFα amount in the supernatant, a human cytokine kit (CIS bio international) was used. As a comparative control compound, Comparative Compound 2 was used.
# human p38 MAPK α = human p38 MAPK α (Homo sapiens (Human), UniProt Q16539); assay: Evaluation of p38 MAPK inhibitory activity (Alpha Screen, ATF2 phosphorylation); type: biochemical; conditions: p38α/SAPK2a 1.5 nM, ATP 100 μM, biotinylated ATF2 30 nM
# Method: Using human p38 MAPK α, the p38 MAPK inhibitory activity of Compound (I) was studied by a method partially modified from the method described in Current Medicinal Chemistry (2004, No. 11, pp. 721-730).
# A solution of each test compound solution in 100% DMSO and a p38α/SAPK2a solution (Final Concentration: 1.5 nM) (Invitrogen) were added to a 384-well plate, and then the plate was incubated at room temperature in a dark place for 1 hour. Thereafter, ATP (Final Concentration: 100 μM), which is a phosphate donor, and biotinylated ATF2 (Final Concentration: 30 nM) (upstate), which is a substrate, were added, and the resulting mixture was allowed to react at room temperature in a dark place for 1 hour (the final concentration of DMSO was 0.25%). After the reaction, an anti-phosphorylated ATF2 antibody (Final Concentration: 1 nM) (Cell Signaling), anti-IgG acceptor beads (Final Concentration: 20 μg/mL) (PerkinElmer) and streptavidin donor beads (Final Concentration: 20 μg/mL) (PerkinElmer) were added, and the resultant was incubated at room temperature in a dark place for 1 hour. Using a microplate analyzer (Fusion-α, Packard) in Alpha Screen method (Amplified Luminescent Proximity Homogeneous Assay), the light emission was detected. The IC50 value of each compound was calculated by sigmoidal dose-response regression using Prism 4.02 (GraphPad Software, Inc.).
# [3] = system: skin swelling response in type I allergic dermatitis model; assay: Skin swelling response in type I allergic dermatitis model; type: in vivo; conditions: BALB/c mouse, 20 μL of 0.5 w/v % solution applied to auricle 1 hour before induction
# From the text: (§2) The action of Compound (I) on skin swelling response in mouse allergic dermatitis models was studied. As the allergic dermatitis models, models partially modified from a type I allergic dermatitis model and a type IV allergic dermatitis model described in documents (Inflamm. Res., 1998, Vol. 47, pp. 506-511 and Int. Arch. Allergy. Appl. Immunol., 1990, Vol. 92, pp. 356-360) were used.
# To each BALB/c mouse (female, 7-week old, Charles River Laboratories Japan, Inc.), mouse IgE anti-DNP antibody (0.05 mg/body, […] CORPORATION) was intravenously administered to passively sensitize the mouse. Twenty four hours after the sensitization, 20 μL of 0.38% DNFB (SIGMA) dissolved in acetone:olive oil (4:1) was applied to the auricle of the mouse to induce inflammation. From after the induction to 24 hours, the thickness of the auricle was measured with time using a Digimatic Indicator (Mitutoyo). Each test compound was dissolved in ethanol, and 20 μL of 0.5 w/v % solution was applied to the auricle at 1 hour before the induction.
# The swelling ratio of the auricle was calculated according to the following equation. […] Auricular Swelling Ratio(%)=(A−B)/B×100
# [4] = system: skin swelling response in type IV allergic dermatitis model; assay: Skin swelling response in type IV allergic dermatitis model; type: in vivo; conditions: BALB/c mouse, 24 hours after induction
# Method: as §2
# To the back of each BALB/c mouse (female, 7-week old, Charles River Laboratories Japan, Inc.), 25 μL of 0.5% DNFB solution dissolved in acetone:olive oil (4:1) was applied. On the next day, the same operations were repeated to actively sensitize the mouse. Four days after the sensitization, 20 μL of 0.2% DNFB solution dissolved in acetone:olive oil (4:1) was applied to the auricle of the sensitized mouse to induce inflammation. Twenty four hours after the induction, the thickness of the auricle was measured using a Digimatic Indicator (Mitutoyo). Each test compound was dissolved in ethanol and 20 μL of 0.5 w/v % solution was applied to the auricle at 1 hour before the induction; or each test compound was suspended in 0.5% methylcellulose (Wako Pure Chemical Industries, Ltd.) and the resulting solution was orally administered at 30 mg/kg at 1 hour before the induction. The swelling ratio of the auricle was calculated according to the following equation: Auricular Swelling Ratio(%)=(A−B)/B×100
# [5] = system: colonic disorders in TNBS-induced colitis model; assay: Colonic disorders in TNBS-induced colitis model; type: in vivo; conditions: Wistar rat, oral 3 mg/kg once on TNBS day then twice a day for 4 days, colon 5 days after TNBS
# From the text: as §1
# To each Slc:Wistar rat (male, 12-week old, Japan SLC, Inc.), TNBS (Wako Pure Chemical Industries, Ltd.) dissolved in ethanol was rectally administered under anesthesia, and the TNBS solution was held in the rectum for 1 hour to produce the colitis model. These rats had been fasted from 2 days before the TNBS administration to the day of the TNBS administration. Five days after the TNBS administration, the colon was isolated from the each rat, and the macroscopic damage score (which is a total of adhesion score, diarrhea score and ulcer score) was recorded as an index of damage in the colon. The macroscopic damage score was calculated based on the scores of Dubigeon et al. (Eur. J. Pharmacol., 2001, Vol. 431, pp. 103-110) and the scores of Venkova et al. (J. Pharmacol. Exp. Ther., 2004, Vol. 308, pp. 206-213). […]
# TNFα production [6] = assay: Mouse LPS-induced cytokine production model; type: in vivo; conditions: BALB/c mouse, 50 mg/kg oral 30 minutes before LPS 1 mg/kg i.p., serum 60 minutes after LPS
# Method: The action of Compound (I) on the TNFα production induced by LPS administration in a mouse was studied by a method partially modified from the method described in Journal of Immunology (1992, Vol. 148, pp. 1890-1897).
# To each BALB/c mouse (male, 7 to 9-week old, Charles River Laboratories Japan, Inc.), LPS (0111:B4, SIGMA) was intraperitoneally administered at a dose of 1 mg/kg. Sixty minutes after the LPS administration, blood was collected from the abdominal vena cava under anesthesia and centrifuged for 15 minutes at 4° C. to obtain a serum. For the measurement of TNF-α in the serum, ELISA Development System (R&D Systems) was used. Each test compound was dissolved in DMSO (Final Concentration: 2%), and then the obtained solution was dissolved in a 27% aqueous solution of 2-hydroxypropyl-β-cyclodextrin (hereinafter referred to as “HP-β-CD”; Nihon Shokuhin Kako Co., Ltd.). Thirty minutes before the LPS administration, the resulting solution was orally administered at 50 mg/kg.
# [7] = Metabolic stability in human CYP (human liver microsomes); type: in vitro ADME; conditions: human liver microsomes 0.5 mg/mL, NADPH, 37° C., comparative control compounds 5 μM
# Method: Each test compound was mixed at a concentration of 2 μM with a phosphate buffer solution containing Human liver microsomes (Xenotech) in an amount of 0.5 mg/mL. Thereafter, NADPH was added thereto, and the obtained mixture was allowed to react at 37° C. for up to 30 minutes. The reaction was terminated by adding acetonitrile, and then the resultant was centrifuged for 10 minutes at 4° C. to collect a supernatant. The supernatant was pretreated by methanol extraction method, and the concentration of the compound was analyzed by LC/MS/MS (ESI positive mode). The compound remaining rate was calculated from the obtained concentration of the compound.
# [8] = system: hyperalgesia in Bennett model; assay: Hyperalgesia in neuropathic pain model (Bennett model), plantar test; type: in vivo; conditions: SD rat, Bennett model day 14, oral 100 mg/kg, 90 minutes after administration; FIG. 2
# From the text: The action of Compound (I) on hyperalgesia in pain models was studied. As the pain models, models partially modified from an inflammatory pain model (a carrageenin paw edema pain model) and neuropathic pain models (Bennett model and Chung model) described in documents (Anesth. Analg., 2009, Vol. 108, pp. 1680-1687; Pain, 1988, Vol. 33, pp. 87-107; and Pain, 1992, Vol. 50, pp. 355-363) were used.
# The Bennett model was produced by lightly ligating the sciatic nerve in the left thigh of each Crl:CD (SD) rat (male, 6-week old, Charles River Laboratories Japan, Inc.) at 4 points with chromic catgut (4-0). Fourteen days after the Bennett model was produced, each test compound was orally administered, and plantar test was performed 90 minutes after the administration. The plantar test was carried out by measuring the pain threshold (sec) of the left footpad (model foot) using a plantar thermal stimulation device (Plantar test 7370, Ugo Basile) wherein the thermal stimulus intensity was set to 60. Each test compound was suspended in 0.5 w/v % methylcellulose (Wako Pure Chemical Industries, Ltd.) and the obtained solution was orally administered. Compound 46b described in the Examples was administered at a dose of 100 mg/kg, and gabapentin (Toronto Research Chemicals), which is an anticonvulsant, was administered as a comparative control agent at a dose of 100 mg/kg.
# Chain of human p38 MAPK α (Q16539 whole entry): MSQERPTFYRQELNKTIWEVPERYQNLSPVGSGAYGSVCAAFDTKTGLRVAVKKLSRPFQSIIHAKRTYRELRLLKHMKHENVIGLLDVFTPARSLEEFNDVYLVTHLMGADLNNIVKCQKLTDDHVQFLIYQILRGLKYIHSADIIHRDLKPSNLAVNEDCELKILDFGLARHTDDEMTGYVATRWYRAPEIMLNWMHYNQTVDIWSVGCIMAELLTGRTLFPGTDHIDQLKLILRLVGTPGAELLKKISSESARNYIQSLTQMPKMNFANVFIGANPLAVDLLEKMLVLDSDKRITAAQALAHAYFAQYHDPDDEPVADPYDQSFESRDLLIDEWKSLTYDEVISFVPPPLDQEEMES
smiles,measurement,setting,value
"COc1c(NC(=O)N[C@H]2Cc3c(F)cccc3[C@H]2O)cc(C(C)(C)C)cc1[C@@H](O)C(F)(F)F (single isomer, unassigned) [Compound 50b]",stool consistency score (total),[1],6.5±0.6
same,IC50,TNFα production [2],46 nM
same,IC50,human p38 MAPK α,35 nM
same,suppression ratio on immediate response (auricular swelling AUC 0-4 hours),[3],33.4%
same,suppression ratio on late response (auricular swelling AUC 5-10 hours),[3],50.2%
same,"suppression ratio of auricular swelling, oral administration",[4]; 30 mg/kg oral 1 hour before induction,54.4%
same,"suppression ratio of auricular swelling, auricular application",[4]; 20 μL of 0.5 w/v % solution on auricle 1 hour before induction,48.0%
same,macroscopic damage score,[5],5.2±1.1
"COc1c(NC(=O)N[C@@H]2Cc3ccccc3[C@@H]2O)cc(C(C)(C)C)cc1C(C)(C)C#N [Comparative Compound 3, 1-(5-tert-butyl-3-(2-cyanopropan-2-yl)-2-methoxyphenyl)-3-((1S,2R)-1-hydroxy-2,3-dihydro-1H-indene-2-yl)urea, reference compound]",Suppression Ratio of TNFα production,TNFα production [6],17.0%
same,microsomal CLint at 5 μM,[7],450 µL/min/mg
"NCC1(CC(=O)O)CCCCC1 [gabapentin, reference compound]","pain threshold (sec), plantar test, compared to solvent-administered group",[8],significant difference
